# “Also recorded” adds a separate entry of the source. Where a name gives a salt, the structure may show the parent alone.
# Columns and labels:
# [1] = Evaluation of hygroscopicity: water content (K.F.) after exposure to humid conditions at 25° C.; type: physicochemical
# Method: The sulphonic acid salts of sibutramine, prepared in Examples 1 to 5, and sibutramine hydrochloride monohydrate were exposed to humid conditions (10%, 75% and 90% RH) at 25° C. for a period of three days or one week. Then, the water content (K.F. water %) of the samples was measured.
# [2] = Evaluation of stability: stringent 60° C. heat treatment, content by HPLC; type: physicochemical; parameters: content (HPLC) upon 60° C. heat treatment: reference not given here
# Method: The sulphonic acid salts of sibutramine, prepared in Examples 1 to 5, and sibutramine hydrochloride monohydrate were exposed to a stringent 60° C. heat treatment.
# HPLC was performed under the following conditions.
# Wavelength of UV detection: 225 nm
# Column: octadecyl silica gel, C18 (4.6×150 mm, 5 μm)
# Mobile phase: an aqueous solution of ammonium phosphate monohydride (0.05 M) (adjusted to pH 6 with phosphoric acid): acetonitrile=35:65
# [3] = Evaluation of light stability: exposure to fluorescence at 25° C., ICH light stability test chamber, content by HPLC; type: physicochemical; parameters: content (HPLC) in light stability test: reference not given here
# Method: A light stability test was performed as follows. The sulphonic acid salts of sibutramine, prepared in Examples 1 to 5, and sibutramine hydrochloride monohydrate were exposed to fluorescence at 25° C. using a light stability test chamber suitable for the ICH guideline, for storage periods of 1, 2 and 4 weeks.
# [4] = Evaluation of solubility in distilled water and aqueous solutions having various pH values; type: physicochemical
# [5] = tested on: rat; conditions: oral; cited from earlier work
smiles,measurement,setting,value
"CC(C)CC(N(C)C)C1(c2ccc(Cl)cc2)CCC1 (stereo not drawn) [HCl monohydrate, sibutramine hydrochloride monohydrate, reference compound]",water content (K.F. water %),"[1]; 10% relative humidity, 25° C., 1 week, hydrochloride monohydrate",5.48%
same,water content (K.F. water %),"[1]; 10% relative humidity, 25° C., 3 days, hydrochloride monohydrate",5.51%
same,water content (K.F. water %),"[1]; 75% relative humidity, 25° C., 1 week, hydrochloride monohydrate",5.50%
same,water content (K.F. water %),"[1]; 75% relative humidity, 25° C., 3 days, hydrochloride monohydrate",5.49%
same,water content (K.F. water %),"[1]; 90% relative humidity, 25° C., 1 week, hydrochloride monohydrate",5.49%
same,water content (K.F. water %),"[1]; 90% relative humidity, 25° C., 3 days, hydrochloride monohydrate",5.50%
same,water content (K.F. water %),"[1]; Initial, hydrochloride monohydrate",5.50%
same,content (HPLC) upon 60° C. heat treatment,"[2]; 60° C., 1 wk, hydrochloride monohydrate",0.999
same,content (HPLC) upon 60° C. heat treatment,"[2]; 60° C., 2 wks, hydrochloride monohydrate",0.999
same,content (HPLC) upon 60° C. heat treatment,"[2]; 60° C., 4 wks, hydrochloride monohydrate",0.999
same,change in content / impurities upon 60° C. heat treatment (in words),"[2]; 60° C., up to one month or longer",almost no change in content
same,content (HPLC) upon 60° C. heat treatment,[2]; Initial,1.000
same,content (HPLC) in light stability test,[3]; Initial,1.000
same,light stability (in words),[3]; content changes analyzed by HPLC,good light stability
same,content (HPLC) in light stability test,"[3]; fluorescence, 25° C., 1 wk, hydrochloride monohydrate",0.999
same,content (HPLC) in light stability test,"[3]; fluorescence, 25° C., 2 wks, hydrochloride monohydrate",1.000
same,content (HPLC) in light stability test,"[3]; fluorescence, 25° C., 4 wks, hydrochloride monohydrate",0.999
"CC(C)CC(N(C)C)C1(c2ccc(Cl)cc2)CCC1 (stereo not drawn) [Tosylate, sibutramine tosylate]",solubility,[4]; DW (distilled water),24320 µg/mL
same,solubility compared to sibutramine hydrochloride monohydrate (in words),[4]; distilled water (DW) and buffer solutions at various pH values,slightly low solubility compared to sibutramine hydrochloride monohydrate; also recorded: slightly lower solubility than sibutramine hydrochloride monohydrate
same,solubility,[4]; pH 1.2,8360 µg/mL
same,solubility,[4]; pH 4.0,7560 µg/mL
same,solubility,[4]; pH 5.3,5530 µg/mL
same,solubility,[4]; pH 6.8,21920 µg/mL
same,solubility,[4]; pH 7.4,7690 µg/mL
same,water content (K.F. water %),"[1]; 10% relative humidity, 25° C., 1 week, listed as Tosyalte",0.07%
same,water content (K.F. water %),"[1]; 10% relative humidity, 25° C., 3 days, listed as Tosyalte",0.08%
same,water content (K.F. water %),"[1]; 75% relative humidity, 25° C., 1 week, listed as Tosyalte",0.08%
same,water content (K.F. water %),"[1]; 75% relative humidity, 25° C., 3 days, listed as Tosyalte",0.05%
same,water content (K.F. water %),"[1]; 90% relative humidity, 25° C., 1 week, listed as Tosyalte",0.07%
same,water content (K.F. water %),"[1]; 90% relative humidity, 25° C., 3 days, listed as Tosyalte",0.05%
same,water content (K.F. water %),"[1]; Initial, listed as Tosyalte",0.10%
same,change in water content under humid conditions (in words),"[1]; relative humidities of 10%, 75% and 90%, up to one week or longer",almost no change in water content
same,content (HPLC) upon 60° C. heat treatment,"[2]; 60° C., 1 wk",0.999
same,content (HPLC) upon 60° C. heat treatment,"[2]; 60° C., 2 wks",1.000
same,content (HPLC) upon 60° C. heat treatment,"[2]; 60° C., 4 wks",0.999
same,content (HPLC) upon 60° C. heat treatment,[2]; Initial,1.000
same,content (HPLC) in light stability test,[3]; Initial,1.000
same,content (HPLC) in light stability test,"[3]; fluorescence, 25° C., 1 wk",1.000
same,content (HPLC) in light stability test,"[3]; fluorescence, 25° C., 2 wks",0.999
same,content (HPLC) in light stability test,"[3]; fluorescence, 25° C., 4 wks",0.999
O=S(=O)(O)c1ccccc1 [benzenesulfonic acid],LD50,[5],"1,157 mg/kg"
Cc1ccc(S(=O)(=O)O)cc1 [p-toluenesulfonic acid],LD50,[5],"2,480 mg/kg"

# Source: patent publication US7429679B2, “Sulphonic acid salt of sibutramine” (CJ Corporation, priority 2005, dated 2008)
